In series [1] the test system is platelets. More on the design: method as in earlier work. Conditions: cited from earlier work.
On the set-up of series [2]: method as in PMID 10702882. Conditions: human healthy male, single dose 100 mg of cilostazol, cited from earlier work.
Series [3] in a line: Pharmacokinetics of cilostazol and its active metabolites in rats. Conditions: single oral cilostazol 300 mg/kg, non-fasting male SD rats, n = 3; parent and metabolites. Type of series: in vivo, rat. The protocol: Pharmacokinetic variables (Cmax, AUC, Tmax and T1/2) were calculated from the plasma drug concentration-time curve. Cilostazol was orally administered to rats under non-fasting conditions at a single dose of 300 mg/kg to determine the concentration-time profile in serum (n = 3). Values are means (± SEM). […]

The nature of series [4]: Electron spin resonance (ESR) radical scavenging. Conditions: ESR experiments, data not shown. An excerpt:
In the photothrombotic cerebral infarction model, photoactivation of rose bengal by illumination with green light results in reactive oxygen intermediates (predominantly singlet oxygen and superoxide). […] Therefore, we concluded that the observed inhibitory effects of K-134 on photothrombosis in this model are relevant to its antiplatelet activity but not radical scavenging activity.

The mark [5] stands for this setting: converted from µg/L, read-out: Cmax.

Like-named read-outs stand apart in the source and are kept apart here.

For `O=C1CCc2cc(OCCCCc3nnnn3C3CCC(O)CC3)ccc2N1` (stereo not drawn) [OPC-13213], the “antiplatelet activity, times less potent than cilostazol” value in series [1] was 3 times. In addition, in series [2] (setting [5]), the Cmax – broadly, the peak of the concentration-time curve – was 170 nM. In series [2] (converted from µg/L·h), the “AUC0–72 h” value is listed as 1.60 µM·h. In addition, in series [2], the “AUC0–72 h” value is around 617 µg·h/L and the Cmax is around 64 µg/L. In series [3], the AUC0-24h is given as 127.3 µM·h, the Cmax was found to be 9.1 µM and the T1/2 amounted to 6.1 h.
Take `O=c1ccc2cc(OCCCCc3nnnn3C3CCCCC3)ccc2[nH]1` [OPC-13015]: the “antiplatelet activity, times more potent than cilostazol” value in series [1] was 3 times. The “scavenging activities against singlet oxygen and superoxide anion radical” value in series [4] is recorded as “did not show scavenging activities”. Moreover, in series [2] (setting [5]), the Cmax is 330 nM. Moreover, in series [2] (converted from µg/L·h), the “AUC0–72 h” value is 6.59 µM·h. In addition, in series [2], the “AUC0–72 h” value was around 2423 µg·h/L and the Cmax is around 122 µg/L. Also, in series [3], the AUC0-24h turned out to be 18.3 µM·h; the Cmax is 1.4 µM; the T1/2 is 6.8 h; the Tmax (as a rule, the time from dosing to the highest level) came out at 3.2 h.

The record behind these values is article PMC3479105, “K-134, a Phosphodiesterase 3 Inhibitor, Prevents Brain Damage by Inhibiting Thrombus Formation in a Rat Cerebral Infarction Model” (PLoS ONE, 2012).
